# According to patent US20090018019A1, “INCREASING PATHOGEN DEFENCE IN PLANTS” (priority 2005, published 2009):
# “Also recorded” adds a separate entry of the source.
# Assays:
# Format in all cases: in vivo
# [1] = tested on: genes for PR proteins; assay: DNA chip expression analysis of barley leaves after soil treatment, gene group; conditions: treated plants compared with non-treated plants
# Description: (§1) Barley seeds (of the Baroness variety) were sown in pots containing soil about 2 cm deep (1250 g of sandy loam/per pot; the soil moisture content was adjusted to 70% of the maximum water-holding capacity) and cultivated in a climatized chamber under specified light, moisture and temperature conditions (15 h white light, 70% atmospheric humidity, 23-19° C. day/night).
# (§2) 14 days after the emergence of the barley plants 10 mg of imidacloprid per plant, dissolved in 100 ml water, were applied by means of a pipette to the soil around the base of the shoot. The same volume of water without any active compound was applied to the control pots. After the soil treatment the plants were no longer watered. At various times after application (0.25; 1; 6; 8; 11; 13; 15; 16 and 17 days) the leaves were harvested, quick-frozen in liquid nitrogen and stored at −80° C. until further treatment.
# The labelled RNA probes for the DNA chip hybridization were produced according to the protocols (Expression Analysis, Technical Manual) of the Affymetrix company (Affymetrix Inc., 3380 Central Expressway, Santa Clara, Calif., USA). Whole RNA was first of all isolated from in each case 500 mg of the harvested leaves. […] The fluorescence data obtained were analyzed with the Microarray Suite 5 software from Affymetrix and the Expressionist Pro software from the GeneData company. […]
# [2] = tested on: Contig12046_at PATHOGENESIS RELATED PROTEIN-1; assay: DNA chip expression analysis of barley leaves after soil treatment; conditions: 10 mg per plant to soil
# Description: as §1, §2
# (§3) The labelled RNA probes for the DNA chip hybridization were produced according to the protocols (Expression Analysis, Technical Manual) of the Affymetrix company (Affymetrix Inc., 3380 Central Expressway, Santa Clara, Calif., USA). Whole RNA was first of all isolated from in each case 500 mg of the harvested leaves. 10 μg portions of whole RNA were used for the first and second strand cDNA synthesis. The cDNA was amplified with T7 polymerase and simultaneously labelled with biotin-UTP. 20 μg portions of this biotinylated cDNA were used for the hybridization of the barley genome array (Barleyl Gene Chip, Item no: 511012) from Affymetrix. This DNA microarray contains DNA sequences of 22840 genes composed of a total of 400000 EST (Expressed Sequence Tag) sequences. Then the DNA microarrays were washed in the Affymetrix Fluidics Station, stained with streptavidin/phycoerythrin (Molecular Probes, P/N S-866) and scanned with the Affymetrix Gene Chip Scanner 3000. The fluorescence data obtained were analyzed with the Microarray Suite 5 software from Affymetrix and the Expressionist Pro software from the GeneData company. After a quality check, all of the DNA chip analyses were stored in a database. Since the Affymetrix Gene Chip System is based on measuring the absolute expression values of the genes contained in the chip, the expression values of the biological replicates of treated and non-treated plants were averaged after normalization (median calculation). With the aid of the statistical ANOVA method, those genes were identified whose expression was increased in the plants treated with imidacloprid but remained relatively constant in the untreated controls. The assembly of gene groups from specific metabolic pathways, signal transduction chains or functions was carried out by a keyword search through the gene annotations supplied by Affymetrix and by linking the genes to their corresponding Gene Ontology Annotations (Gene Ontology Consortium).
# [3] = tested on: Contig2211_at PATHOGENESIS-RELATED PROTEIN PRECURSOR; assay: as above; conditions: 10 mg per plant to soil
# Description: as §1, §2, §3
# [4] = tested on: Contig2210_at PATHOGENESIS-RELATED PROTEIN 1 PRECURSOR; assay: as above; conditions: 10 mg per plant to soil
# Description: as §1, §2, §3
# [5] = tested on: Contig2212_s_at PATHOGENESIS-RELATED PROTEIN PRB1-3; assay: as above; conditions: 10 mg per plant to soil
# Description: as §1, §2, §3
smiles,measurement,setting,value
O=[N+]([O-])/N=C1\NCCN1Cc1ccc(Cl)nc1 [imidacloprid],expression of genes for PR proteins,[1],increased expression; also recorded: powerful induction
same,Induction factor = Expression (treated)/Expression (untreated),[2]; 0.25 d,0.9
same,"Median of the raw expression data, treated",[2]; 0.25 days,76.89
same,Induction factor = Expression (treated)/Expression (untreated),[2]; 1 d,0.8
same,"Median of the raw expression data, treated",[2]; 1 day,46.22
same,Induction factor = Expression (treated)/Expression (untreated),[2]; 6 d,6.5
same,"Median of the raw expression data, treated",[2]; 6 days,786.00
same,Induction factor = Expression (treated)/Expression (untreated),[2]; 8 d,7.2
same,"Median of the raw expression data, treated",[2]; 8 days,1336.13
same,Induction factor = Expression (treated)/Expression (untreated),[2]; 11 d,7.8
same,"Median of the raw expression data, treated",[2]; 11 days,792.96
same,Induction factor = Expression (treated)/Expression (untreated),[2]; 13 d,2.7
same,"Median of the raw expression data, treated",[2]; 13 days,140.26
same,Induction factor = Expression (treated)/Expression (untreated),[2]; 15 d,2.5
same,"Median of the raw expression data, treated",[2]; 15 days,150.31
same,Induction factor = Expression (treated)/Expression (untreated),[2]; 16 d,2.9
same,"Median of the raw expression data, treated",[2]; 16 days,622.77
same,Induction factor = Expression (treated)/Expression (untreated),[2]; 17 d,0.9
same,"Median of the raw expression data, treated",[2]; 17 days,220.80
same,Induction factor = Expression (treated)/Expression (untreated),[3]; 0.25 d,1.0
same,"Median of the raw expression data, treated",[3]; 0.25 days,223.31
same,Induction factor = Expression (treated)/Expression (untreated),[3]; 1 d,1.0
same,"Median of the raw expression data, treated",[3]; 1 day,206.49
same,Induction factor = Expression (treated)/Expression (untreated),[3]; 6 d,3.1
same,"Median of the raw expression data, treated",[3]; 6 days,824.50
same,Induction factor = Expression (treated)/Expression (untreated),[3]; 8 d,3.7
same,"Median of the raw expression data, treated",[3]; 8 days,928.65
same,Induction factor = Expression (treated)/Expression (untreated),[3]; 11 d,3.0
same,"Median of the raw expression data, treated",[3]; 11 days,868.02
same,Induction factor = Expression (treated)/Expression (untreated),[3]; 13 d,1.8
same,"Median of the raw expression data, treated",[3]; 13 days,296.99
same,Induction factor = Expression (treated)/Expression (untreated),[3]; 15 d,1.1
same,"Median of the raw expression data, treated",[3]; 15 days,252.25
same,Induction factor = Expression (treated)/Expression (untreated),[3]; 16 d,1.5
same,"Median of the raw expression data, treated",[3]; 16 days,340.64
same,Induction factor = Expression (treated)/Expression (untreated),[3]; 17 d,0.8
same,"Median of the raw expression data, treated",[3]; 17 days,219.24
same,Induction factor = Expression (treated)/Expression (untreated),[4]; 0.25 d,0.6
same,"Median of the raw expression data, treated",[4]; 0.25 days,143.08
same,Induction factor = Expression (treated)/Expression (untreated),[4]; 1 d,0.4
same,"Median of the raw expression data, treated",[4]; 1 day,78.12
same,Induction factor = Expression (treated)/Expression (untreated),[4]; 6 d,7.9
same,"Median of the raw expression data, treated",[4]; 6 days,6881.20
same,Induction factor = Expression (treated)/Expression (untreated),[4]; 8 d,8.8
same,"Median of the raw expression data, treated",[4]; 8 days,8961.17
same,Induction factor = Expression (treated)/Expression (untreated),[4]; 11 d,5.4
same,"Median of the raw expression data, treated",[4]; 11 days,7946.25
same,Induction factor = Expression (treated)/Expression (untreated),[4]; 13 d,3.6
same,"Median of the raw expression data, treated",[4]; 13 days,1553.93
same,Induction factor = Expression (treated)/Expression (untreated),[4]; 15 d,2.8
same,"Median of the raw expression data, treated",[4]; 15 days,1970.04
same,Induction factor = Expression (treated)/Expression (untreated),[4]; 16 d,2.4
same,"Median of the raw expression data, treated",[4]; 16 days,2013.49
same,Induction factor = Expression (treated)/Expression (untreated),[4]; 17 d,0.7
same,"Median of the raw expression data, treated",[4]; 17 days,1121.55
same,Induction factor = Expression (treated)/Expression (untreated),[5]; 0.25 d,0.9
same,"Median of the raw expression data, treated",[5]; 0.25 days,153.25
same,Induction factor = Expression (treated)/Expression (untreated),[5]; 1 d,0.9
same,"Median of the raw expression data, treated",[5]; 1 day,135.85
same,Induction factor = Expression (treated)/Expression (untreated),[5]; 6 d,9.6
same,"Median of the raw expression data, treated",[5]; 6 days,3508.08
same,Induction factor = Expression (treated)/Expression (untreated),[5]; 8 d,10.3
same,"Median of the raw expression data, treated",[5]; 8 days,3936.08
same,Induction factor = Expression (treated)/Expression (untreated),[5]; 11 d,9.0
same,"Median of the raw expression data, treated",[5]; 11 days,3866.40
same,Induction factor = Expression (treated)/Expression (untreated),[5]; 13 d,3.7
same,"Median of the raw expression data, treated",[5]; 13 days,470.29
same,Induction factor = Expression (treated)/Expression (untreated),[5]; 15 d,2.3
same,"Median of the raw expression data, treated",[5]; 15 days,378.35
same,Induction factor = Expression (treated)/Expression (untreated),[5]; 16 d,2.4
same,"Median of the raw expression data, treated",[5]; 16 days,756.91
same,Induction factor = Expression (treated)/Expression (untreated),[5]; 17 d,0.7
same,"Median of the raw expression data, treated",[5]; 17 days,376.36
